Starred links: 1 amine or outer side, 2 acyl side, 3 side chain; linkers in the order of their positions; H or OH if unused. Non-standard residues stand in square brackets, D forms with d. Residues, ends and D or L forms follow the SMILES beside them. Groups on a side chain read outwards from the residue. *: point of attachment. C18 diacid = O=C(O)CCCCCCCCCCCCCCCCC(=O)*; γGlu = O=C(O)[C@H](CCC(=O)[*:2])N[*:1]; NMeY = CN[C@@H](Cc1ccc(O)cc1)C(=O)O; AEEA = NCCOCCOCC(=O)O; Aib = CC(C)(N)C(=O)O
Assay: physchem
Procedure, shortened: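 Solubility at pH 7.4 determined by stepwise addition of 200 mM phosphate buffer in 100 μL increments to 3 mg peptide, mixing briefly each time, until no insoluble material remained, then measured by liquid chromatography.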

| Compound | solubility (pH 7.4) [mg/mL] | solubility (pH 7.4, aqueous buffer) [mg/mL] |
| --- | --- | --- |
| CC[C@H](C)[C@H](NC(=O)[C@H](Cc1ccccc1)NC(=O)[C@@H](NC(=O)CNC(=O)[C@H](CCC(=O)O)NC(=O)C(C)(C)NC(=O)[C@H](Cc1ccc(O)cc1)NC)[C@@H](C)O)C(=O)N[C@@H](CO)C(=O)N[C@@H](CC(=O)O)C(=O)N[C@@H](Cc1ccc(O)cc1)C(=O)N[C@@H](CO)C(=O)N[C@H](C(=O)NC(C)(C)C(=O)N[C@@H](CC(C)C)C(=O)N[C@@H](CC(=O)O)C(=O)N[C@@H](CCCNC(=N)N)C(=O)NC(C)(C)C(=O)N[C@@H](CCCCNC(=O)COCCOCCNC(=O)COCCOCCNC(=O)CC[C@H](NC(=O)CC[C@H](NC(=O)CCCCCCCCCCCCCCCCC(=O)O)C(=O)O)C(=O)O)C(=O)N[C@@H](CCC(N)=O)C(=O)NC(C)(C)C(=O)N[C@@H](CC(N)=O)C(=O)N[C@@H](Cc1ccccc1)C(=O)N[C@H](C(=O)N[C@@H](CC(N)=O)C(=O)N[C@@H](Cc1c[nH]c2ccccc12)C(=O)N[C@@H](CC(C)C)C(=O)N[C@@H](CC(C)C)C(=O)N[C@@H](C)C(=O)N[C@@H](CCC(N)=O)C(=O)N[C@@H](CCCNC(=N)N)C(=O)NCC(=O)O)C(C)C)[C@@H](C)CC [Compound 74] (H-[NMeY][Aib]EGTFISDYSI[Aib]LDR[Aib]K([AEEA-AEEA-γGlu-γGlu-C18 diacid])Q[Aib]NFVNWLLAQRG-OH) | ≥ 15 | ≥ 30 |
| CC[C@H](C)[C@H](NC(=O)[C@H](CO)NC(=O)[C@H](Cc1ccc(O)cc1)NC(=O)[C@H](CC(=O)O)NC(=O)[C@H](CO)NC(=O)[C@@H](NC(=O)[C@H](Cc1ccccc1)NC(=O)[C@@H](NC(=O)CNC(=O)[C@H](CCC(=O)O)NC(=O)C(C)(C)NC(=O)[C@H](Cc1ccc(O)cc1)NC)[C@@H](C)O)[C@@H](C)CC)C(=O)N[C@@H](C)C(=O)N[C@@H](CC(C)C)C(=O)N[C@@H](CC(=O)O)C(=O)N[C@@H](CO)C(=O)N[C@@H](CCCCNC(=O)CNC(=O)CNC(=O)CNC(=O)CNC(=O)CNC(=O)CCCCCCCCCCCCCCCCC(=O)O)C(=O)N[C@@H](C)C(=O)N[C@@H](CCC(N)=O)C(=O)NC(C)(C)C(=O)N[C@@H](CC(=O)O)C(=O)N[C@@H](Cc1ccccc1)C(=O)N[C@H](C(=O)N[C@@H](CC(N)=O)C(=O)N[C@@H](Cc1c[nH]c2ccccc12)C(=O)N[C@@H](CC(C)C)C(=O)N[C@@H](CC(C)C)C(=O)N[C@@H](C)C(=O)N[C@@H](CCC(N)=O)C(=O)N[C@@H](CCCCN)C(=O)NCC(=O)O)C(C)C [Compound 78] | ≥ 15 | ≥ 30 |
| CC[C@H](C)[C@H](NC(=O)[C@H](CO)NC(=O)[C@H](Cc1ccc(O)cc1)NC(=O)[C@H](CC(=O)O)NC(=O)[C@H](CO)NC(=O)[C@@H](NC(=O)[C@H](Cc1ccccc1)NC(=O)[C@@H](NC(=O)CNC(=O)[C@H](CCC(=O)O)NC(=O)C(C)(C)NC(=O)[C@H](Cc1ccc(O)cc1)NC)[C@@H](C)O)[C@@H](C)CC)C(=O)N[C@@H](C)C(=O)N[C@@H](CCCCNC(=O)CNC(=O)CNC(=O)CNC(=O)CNC(=O)CC[C@H](NC(=O)CCCCCCCCCCCCCCCCC(=O)O)C(=O)O)C(=O)N[C@@H](CC(=O)O)C(=O)N[C@@H](CO)C(=O)NC(C)(C)C(=O)N[C@@H](C)C(=O)N[C@@H](CCC(N)=O)C(=O)NC(C)(C)C(=O)N[C@@H](CC(=O)O)C(=O)N[C@@H](Cc1ccccc1)C(=O)N[C@H](C(=O)N[C@@H](CC(N)=O)C(=O)N[C@@H](Cc1c[nH]c2ccccc12)C(=O)N[C@@H](CC(C)C)C(=O)N[C@@H](CC(C)C)C(=O)N[C@@H](C)C(=O)N[C@@H](CCC(N)=O)C(=O)N[C@@H](CCCCN)C(=O)NCC(=O)O)C(C)C [Compound 79] (H-[NMeY][Aib]EGTFISDYSIAK([Gly-Gly-Gly-Gly-γGlu-C18 diacid])DS[Aib]AQ[Aib]DFVNWLLAQKG-OH) | ≥ 15 | ≥ 30 |
| CC[C@H](C)[C@H](NC(=O)[C@H](CO)NC(=O)[C@H](Cc1ccc(O)cc1)NC(=O)[C@H](CC(=O)O)NC(=O)[C@H](CO)NC(=O)[C@@H](NC(=O)[C@H](Cc1ccccc1)NC(=O)[C@@H](NC(=O)CNC(=O)[C@H](CCC(=O)O)NC(=O)C(C)(C)NC(=O)[C@H](Cc1ccc(O)cc1)NC)[C@@H](C)O)[C@@H](C)CC)C(=O)N[C@@H](C)C(=O)N[C@@H](CCCCNC(=O)CNC(=O)CNC(=O)CNC(=O)CNC(=O)CC[C@H](NC(=O)CCCCCCCCCCCCCCCCC(=O)O)C(=O)O)C(=O)N[C@@H](CC(=O)O)C(=O)N[C@@H](CCCNC(=N)N)C(=O)NC(C)(C)C(=O)N[C@@H](C)C(=O)N[C@@H](CCC(N)=O)C(=O)NC(C)(C)C(=O)N[C@@H](CC(=O)O)C(=O)N[C@@H](Cc1ccccc1)C(=O)N[C@H](C(=O)N[C@@H](CC(N)=O)C(=O)N[C@@H](Cc1c[nH]c2ccccc12)C(=O)N[C@@H](CC(C)C)C(=O)N[C@@H](CC(C)C)C(=O)N[C@@H](C)C(=O)N[C@@H](CCC(N)=O)C(=O)N[C@@H](CCCCN)C(=O)NCC(=O)O)C(C)C [Compound 80] (H-[NMeY][Aib]EGTFISDYSIAK([Gly-Gly-Gly-Gly-γGlu-C18 diacid])DR[Aib]AQ[Aib]DFVNWLLAQKG-OH) | ≥ 15 | ≥ 30 |
| CC[C@H](C)[C@H](NC(=O)[C@H](Cc1ccccc1)NC(=O)[C@@H](NC(=O)CNC(=O)[C@H](CCC(=O)O)NC(=O)C(C)(C)NC(=O)[C@H](Cc1ccc(O)cc1)NC)[C@@H](C)O)C(=O)N[C@@H](CO)C(=O)N[C@@H](CC(=O)O)C(=O)N[C@@H](Cc1ccc(O)cc1)C(=O)N[C@@H](CO)C(=O)N[C@H](C(=O)NC(C)(C)C(=O)N[C@@H](CC(C)C)C(=O)N[C@@H](CC(=O)O)C(=O)N[C@@H](CCCNC(=N)N)C(=O)NC(C)(C)C(=O)N[C@@H](C)C(=O)N[C@@H](CCC(N)=O)C(=O)NC(C)(C)C(=O)N[C@@H](CCCCNC(=O)COCCOCCNC(=O)COCCOCCNC(=O)CC[C@H](NC(=O)CC[C@H](NC(=O)CCCCCCCCCCCCCCCCC(=O)O)C(=O)O)C(=O)O)C(=O)N[C@@H](Cc1ccccc1)C(=O)N[C@H](C(=O)N[C@@H](CC(N)=O)C(=O)N[C@@H](Cc1c[nH]c2ccccc12)C(=O)N[C@@H](CC(C)C)C(=O)N[C@@H](CC(C)C)C(=O)N[C@@H](C)C(=O)N[C@@H](CCC(N)=O)C(=O)N[C@@H](CO)C(=O)N1CCC[C@H]1C(=O)NCC(=O)O)C(C)C)[C@@H](C)CC [Compound 85] (H-[NMeY][Aib]EGTFISDYSI[Aib]LDR[Aib]AQ[Aib]K([AEEA-AEEA-γGlu-γGlu-C18 diacid])FVNWLLAQSPG-OH) | ≥ 15 | ≥ 30 |
| CC[C@H](C)[C@H](NC(=O)[C@H](CO)NC(=O)[C@H](Cc1ccc(O)cc1)NC(=O)[C@H](CC(=O)O)NC(=O)[C@H](CO)NC(=O)[C@@H](NC(=O)[C@H](Cc1ccccc1)NC(=O)[C@@H](NC(=O)CNC(=O)[C@H](CCC(=O)O)NC(=O)C(C)(C)NC(=O)[C@H](Cc1ccc(O)cc1)NC)[C@@H](C)O)[C@@H](C)CC)C(=O)N[C@@H](C)C(=O)N[C@@H](CC(C)C)C(=O)N[C@@H](CC(=O)O)C(=O)N[C@@H](CCCNC(=N)N)C(=O)NC(C)(C)C(=O)N[C@@H](C)C(=O)N[C@@H](CCC(N)=O)C(=O)NC(C)(C)C(=O)N[C@@H](CCCCNC(=O)COCCOCCNC(=O)COCCOCCNC(=O)CC[C@H](NC(=O)CC[C@H](NC(=O)CCCCCCCCCCCCCCCCC(=O)O)C(=O)O)C(=O)O)C(=O)N[C@@H](Cc1ccccc1)C(=O)N[C@H](C(=O)N[C@@H](CC(N)=O)C(=O)N[C@@H](Cc1c[nH]c2ccccc12)C(=O)N[C@@H](CC(C)C)C(=O)N[C@@H](CC(C)C)C(=O)N[C@@H](C)C(=O)N[C@@H](CCC(N)=O)C(=O)N[C@@H](CO)C(=O)N1CCC[C@H]1C(=O)NCC(=O)O)C(C)C [Compound 86] (H-[NMeY][Aib]EGTFISDYSIALDR[Aib]AQ[Aib]K([AEEA-AEEA-γGlu-γGlu-C18 diacid])FVNWLLAQSPG-OH) | ≥ 15 | ≥ 30 |
| CC[C@H](C)[C@H](NC(=O)[C@H](Cc1ccccc1)NC(=O)[C@@H](NC(=O)CNC(=O)[C@H](CCC(=O)O)NC(=O)C(C)(C)NC(=O)[C@H](Cc1ccc(O)cc1)NC)[C@@H](C)O)C(=O)N[C@@H](CO)C(=O)N[C@@H](CC(=O)O)C(=O)N[C@@H](Cc1ccc(O)cc1)C(=O)N[C@@H](CO)C(=O)N[C@H](C(=O)NC(C)(C)C(=O)N[C@@H](CC(C)C)C(=O)N[C@@H](CC(=O)O)C(=O)N[C@@H](CCCNC(=N)N)C(=O)NC(C)(C)C(=O)N[C@@H](CCCCNC(=O)COCCOCCNC(=O)COCCOCCNC(=O)CC[C@H](NC(=O)CC[C@H](NC(=O)CCCCCCCCCCCCCCCCC(=O)O)C(=O)O)C(=O)O)C(=O)N[C@@H](CCC(N)=O)C(=O)NC(C)(C)C(=O)N[C@@H](CC(=O)O)C(=O)N[C@@H](Cc1ccccc1)C(=O)N[C@H](C(=O)N[C@@H](CC(N)=O)C(=O)N[C@@H](Cc1c[nH]c2ccccc12)C(=O)N[C@@H](CC(C)C)C(=O)N[C@@H](CC(C)C)C(=O)N[C@@H](C)C(=O)N[C@@H](CCC(N)=O)C(=O)N[C@@H](CO)C(=O)N1CCC[C@H]1C(=O)NCC(=O)O)C(C)C)[C@@H](C)CC [Compound 87] (H-[NMeY][Aib]EGTFISDYSI[Aib]LDR[Aib]K([AEEA-AEEA-γGlu-γGlu-C18 diacid])Q[Aib]DFVNWLLAQSPG-OH) | ≥ 15 | ≥ 30 |

— patent US20230143604A1, “QW DOSING OF GIP RECEPTOR AGONIST PEPTIDE COMPOUNDS AND USES THEREOF” (TAKEDA PHARMACEUTICAL COMPANY LIMITED, priority 2020, published 2023)
